Source: US8895588B2, “Pyrazole compound” (Takeda Pharmaceutical Company Limited, priority 2009, dated 2014)

Experiments:
Caspase-3/7 = Caspase-3/7 activity test; format: cell-based, human; conditions: HepG2, 100 μM, culture for one day, relative to staurosporine maximum as 100%, no test reagent as 0%
Description: (§1) Human hepatocellular liver carcinoma cell line HepG2 (ATCC No. HB-8065) was maintained and subcultured at 5% CO2, 37° C. in a Dulbecco's modified Eagle medium (DMEM; Invitrogen) medium containing 10% fetal bovine serum (FBS; TRACE SCIENTIFIC LTD.), 1 mmol/L sodium pyruvate (Invitrogen), 2 mmol/L L-glutamine (Invitrogen), 50 IU/mL penicillin (Invitrogen), 50 μg/mL streptomycin (Invitrogen). Test reagent was prepared to 10 mM with DMSO, and diluted with DMEM medium containing 0.5% FBS, 1 mmol/L sodium pyruvate, 2 mmol/L L-glutamine, 50 IU/ml penicillin, 50 μg/mL streptomycin to the DMSO final concentration of 0.1%. HepG2 (2×10^4 cells/well) was cultured on a 96 well white plate (Costar) together with the test reagent at 5% CO2, 37° C. After culture for one day, the intracellular ATP content was measured with ATPLite™ (PerkinElmer Life Sciences). The results are shown in Table 1 as relative value (%) to the control (free of compound) at 100 μm (n≧3, mean±SD). Caspase-3/7 Activity Test The cells were cultured for one day according to a method similar to the method of Experimental Example 3, and the intracellular Caspase-3/7 activity was measured by Caspase-Glo 3/7 Assay (Promega). The results are shown in Table 1 as relative activity (%) of each test reagent when the maximum value of Caspase-3/7 activity on exposure to staurosporine as 100%, and activity without addition of test reagent as 0% (n≧3, mean±SD).

anesthetized rat = test: Histamine-stimulated acid secretion suppression test using anesthetized rat; format: in vivo; conditions: 1 mg/kg i.v., anesthetized SD rat, 3 hr after histamine
Description: Histamine-Stimulated Acid Secretion Suppression Test Using Anesthetized Rat 7-Week-old Jcl: male SD rats were fasted for about 24 hr and used for the experiment. Under urethane (1.2 g/kg, i.p.) anesthesia, the abdomen was incised along the middle-spinal line and the pyloric ring was ligated. Test compound (1 mg/kg) was intravenously administered, the abdominal incision was sutured, and histamine dihydrochloride (30 mg/kg/10 mL) dissolved in physiological saline was subcutaneously administered. After 3 hr from histamine administration, the rats were killed with carbon dioxide gas. The stomach was isolated and the accumulated gastric fluid was collected. The gastric fluid amount was measured and the acid level was measured using acid titration apparatus COM-555 (HIRANUMA SANGYO Co., Ltd.), and the product thereof was taken as the acid secretion level. The acid secretion suppressive rate of the test compound was determined from the comparison with control.

HepG2 = test: ATP content test; format: cell-based, human; conditions: HepG2, 100 μM, culture for one day, relative value to control (free of compound)
Description: as §1, with “ATP Content Test Human” for “Human”, “mean±SD).” for “mean±SD). Caspase-3/7 Activity Test The cells were cultured for one day according to a method similar to the method of Experimental Example 3, and the intracellular Caspase-3/7 activity was measured by Caspase-Glo 3/7 Assay (Promega). The results are shown in Table 1 as relative activity (%) of each test reagent when the maximum value of Caspase-3/7 activity on exposure to staurosporine as 100%, and activity without addition of test reagent as 0% (n≧3, mean±SD).”

H^+/K^+-ATPase = target: T1, H^+/K^+-ATPase (Sus scrofa, UniProt P19156); test: Proton potassium-adenosine triphosphatase (H+,K+-ATPase) inhibitory activity test; format: biochemical; conditions: swine gastric mucosa microsomal fraction, pH 6.5, 37° C.
T1 construct: The obtained microsomal fraction was used as proton, potassium-adenosine triphosphatase preparations; from tissue; host or cells: swine stomach, microsomal fraction of gastric mucosa
T1 sequence (P19156 whole entry): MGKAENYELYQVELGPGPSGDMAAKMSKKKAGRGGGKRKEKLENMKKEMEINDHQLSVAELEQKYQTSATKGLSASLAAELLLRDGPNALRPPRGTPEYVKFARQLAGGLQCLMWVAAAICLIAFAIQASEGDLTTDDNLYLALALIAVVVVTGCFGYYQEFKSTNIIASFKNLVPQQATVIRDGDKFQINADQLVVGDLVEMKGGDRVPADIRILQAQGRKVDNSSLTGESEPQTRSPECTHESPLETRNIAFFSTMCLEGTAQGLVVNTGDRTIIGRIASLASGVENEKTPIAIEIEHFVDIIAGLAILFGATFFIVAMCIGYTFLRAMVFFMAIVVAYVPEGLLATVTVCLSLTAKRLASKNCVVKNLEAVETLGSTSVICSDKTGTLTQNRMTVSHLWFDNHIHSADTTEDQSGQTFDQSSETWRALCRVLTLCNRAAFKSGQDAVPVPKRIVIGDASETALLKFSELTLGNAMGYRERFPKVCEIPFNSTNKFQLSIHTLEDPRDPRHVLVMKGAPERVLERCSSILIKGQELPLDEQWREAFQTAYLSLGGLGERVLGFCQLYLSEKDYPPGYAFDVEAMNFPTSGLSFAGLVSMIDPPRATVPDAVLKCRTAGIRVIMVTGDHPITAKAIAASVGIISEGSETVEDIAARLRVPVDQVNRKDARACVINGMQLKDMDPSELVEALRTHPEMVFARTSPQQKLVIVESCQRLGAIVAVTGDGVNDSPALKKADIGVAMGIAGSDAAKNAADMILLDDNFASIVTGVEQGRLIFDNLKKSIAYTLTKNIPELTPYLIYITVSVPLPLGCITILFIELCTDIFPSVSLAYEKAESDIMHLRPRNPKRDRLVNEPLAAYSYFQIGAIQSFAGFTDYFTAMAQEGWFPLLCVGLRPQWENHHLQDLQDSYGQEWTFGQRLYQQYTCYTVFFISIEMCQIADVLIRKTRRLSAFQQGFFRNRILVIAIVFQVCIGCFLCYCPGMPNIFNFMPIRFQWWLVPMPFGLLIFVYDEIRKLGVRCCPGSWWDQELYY
T1 sequence (P18434 whole entry partner): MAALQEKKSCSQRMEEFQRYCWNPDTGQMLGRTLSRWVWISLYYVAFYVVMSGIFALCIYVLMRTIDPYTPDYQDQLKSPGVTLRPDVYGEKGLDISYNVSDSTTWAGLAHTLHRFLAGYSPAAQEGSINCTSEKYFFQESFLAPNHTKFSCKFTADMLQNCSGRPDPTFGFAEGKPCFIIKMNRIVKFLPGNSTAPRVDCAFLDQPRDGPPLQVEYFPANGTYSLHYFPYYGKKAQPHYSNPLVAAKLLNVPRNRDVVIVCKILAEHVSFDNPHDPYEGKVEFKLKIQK
Description: Proton Potassium-Adenosine Triphosphatase (H^+,K^+-ATPase) Inhibitory Activity Test According to the method of Wallmark et al. [Biochim. Biophys. Acta, 728, 31 (1983)], a microsomal fraction of gastric mucosa was prepared from the stomach of swine. First, the stomach was removed, washed with tap water, and immersed in 3 mol/L sodium chloride, and the surface of the mucosa was wiped with a paper towel. The gastric mucosa was removed, minced, and homogenized in a 0.25 mol/L sucrose solution (pH 6.8) containing 1 mmol/L EDTA and 10 mmol/L tris-hydrochloric acid using polytron (Kinematica). The obtained homogenate was centrifuged at 20,000×g for 30 min and the supernatant was centrifuged at 100,000×g for 90 min. The precipitate was suspended in 0.25 mol/L sucrose solution, the suspension was superimposed on a 0.25 mol/L sucrose solution containing 7.5% Ficoll, and centrifuged at 100,000×g for 5 hr. The fraction containing the interface between the both layers was recovered, and centrifugally washed with 0.25 mol/L sucrose solution. The obtained microsomal fraction was used as proton, potassium-adenosine triphosphatase preparations. To 50 mmol/L HEPES-Tris buffer (5 mmol/L magnesium chloride, 10 mmol/L potassium chloride, 10 μmol/L valinomycin, pH=6.5, 40 μL) containing 2.5 μg/mL enzyme preparation based on the protein concentration was added a test compound (5 μL) dissolved in 10% dimethyl sulfoxide solution, and the mixture was incubated at 37° C. for 30 min. A 2 mmol/L adenosine triphosphate tris salt solution (50 mmol/L HEPES-tris buffer (5 mmol/L magnesium chloride, pH 6.5), 5 μL) was added to start an enzyme reaction. The enzyme reaction was performed at 37° C. for 20 min, and then a malachite green solution (a mixture of 0.12% malachite green sulfate (2.5 mol/L) solution, 7.5% ammonium molybdate and 11% Tween 20 at a ratio of 100:25:2, 15 μL) was added to stop the reaction. The reaction mixture was stood at room temperature for 15 min, and the resulting reaction product of inorganic phosphorus and malachite green was measured by colorimetric quantification at a wavelength of 610 nm. In addition, the amount of inorganic phosphoric acid in a reaction solution free of potassium chloride was also measured in the same manner, and the value was extracted from that in the presence of potassium chloride, whereby the proton, potassium-adenosine triphosphatase activity was measured. The inhibitory rate (%) was determined from the activity value of the control and that at each concentration of the test compound, and 50% inhibitory concentration (IC50) to proton, potassium-adenosine triphosphatase was determined.

Caspase-3/7 activity (%, 100 μM) (Caspase-3/7) | ATP content (%, 100 μM) (HepG2) | IC50 (H^+/K^+-ATPase) | SMILES | acid secretion inhibitory rate (%, 1 mg/kg, intravenous administration, rat) (anesthetized rat)
0.1% | 95.9% | 120 nM | CNCc1cc(S(=O)(=O)c2ccc(F)cc2)n(-c2cccnc2F)n1.Cl [Example 1, 1-{5-[(4-fluorophenyl)sulfonyl]-1-(2-fluoropyridin-3-yl)-1H-pyrazol-3-yl}-N-methylmethanamine hydrochloride] | 98%
– | – | 350 nM | CNCc1cc(S(=O)(=O)c2ccc(OC)cc2)n(-c2cccnc2F)n1.Cl [Example 2, 1-{1-(2-fluoropyridin-3-yl)-5-[(4-methoxyphenyl)sulfonyl]-1H-pyrazol-3-yl}-N-methylmethanamine hydrochloride] | 82%
1.0% | 98.5% | 230 nM | CNCc1cc(S(=O)(=O)c2cccc(C#N)c2)n(-c2cccnc2F)n1.Cl [Example 4, 3-({1-(2-fluoropyridin-3-yl)-3-[(methylamino)methyl]-1H-pyrazol-5-yl}sulfonyl)benzonitrile hydrochloride] | 99%
−0.2% | 90.1% | 88 nM | CNCc1cc(S(=O)(=O)c2cccc(C)c2)n(-c2cccnc2F)n1.Cl [Example 3, 1-{1-(2-fluoropyridin-3-yl)-5-[(3-methylphenyl)sulfonyl]-1H-pyrazol-3-yl}-N-methylmethanamine hydrochloride] | 95%
